Data as given in PubChem BioAssay (NCI).
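How tested: cells in 96-well plates exposed to compound for 48 hours at five concentrations. TGI: concentration producing complete growth inhibition.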

What was measured:
Test in all cases: inhibition of tumour cell growth, NCI panel, 48 h
CAKI-1 renal = tested on: CAKI-1 renal
UACC-257 melanoma = tested on: UACC-257 melanoma
EKVX NSCLC = tested on: EKVX NSCLC
SF-268 CNS = tested on: SF-268 CNS
U251 CNS = tested on: U251 CNS
SK-MEL-5 melanoma = tested on: SK-MEL-5 melanoma
UACC-62 melanoma = tested on: UACC-62 melanoma
MALME-3M melanoma = tested on: MALME-3M melanoma
HL-60(TB) leukemia = tested on: HL-60(TB) leukemia

Cc1cccc(Nc2cn(CCOc3ccccc3)c(=O)[nH]c2=O)c1
TGI (CAKI-1 renal): > 100 µM
TGI (UACC-257 melanoma): > 100 µM
TGI (EKVX NSCLC): 39.8 µM
TGI (SF-268 CNS): > 100 µM
TGI (U251 CNS): > 100 µM
TGI (SK-MEL-5 melanoma): 70.2 µM
TGI (UACC-62 melanoma): > 100 µM

CC(=O)NC1C(OCC(=O)NC(C)C(=O)NC(CCC(=O)NCCCCCNc2ccc([N+](=O)[O-])c3[nH]c4ccccc4c(=O)c23)C(N)=O)C(O)C(CO)OC1(C)OCc1ccccc1 (stereo not drawn)
TGI (CAKI-1 renal): > 50 µM
TGI (UACC-257 melanoma): > 50 µM
TGI (MALME-3M melanoma): 26.9 µM
TGI (EKVX NSCLC): > 50 µM
TGI (SF-268 CNS): > 50 µM
TGI (U251 CNS): > 50 µM
TGI (SK-MEL-5 melanoma): > 50 µM
TGI (UACC-62 melanoma): > 50 µM

CCOc1ccc(N=NC2C(=O)N(C(=O)CC(=O)Nc3ccc(Cl)cc3)N=C2C)cc1 (stereo not drawn)
TGI (CAKI-1 renal): > 100 µM
TGI (MALME-3M melanoma): > 100 µM
TGI (EKVX NSCLC): > 100 µM
TGI (SF-268 CNS): > 100 µM
TGI (U251 CNS): > 100 µM
TGI (SK-MEL-5 melanoma): > 100 µM
TGI (HL-60(TB) leukemia): > 100 µM
TGI (UACC-62 melanoma): > 100 µM

NS(=O)(=O)c1ccc(CNC(=S)NC(=O)Nc2ccc(Cl)c(Cl)c2)cc1
TGI (UACC-257 melanoma): > 100 µM
TGI (MALME-3M melanoma): 57.1 µM
TGI (SF-268 CNS): 52.8 µM
TGI (U251 CNS): 26.7 µM
TGI (SK-MEL-5 melanoma): 33 µM
TGI (UACC-62 melanoma): 29.3 µM

CCN(CC)P1(=S)Oc2ccc3ccccc3c2-c2c(ccc3ccccc23)O1
TGI (CAKI-1 renal): > 100 µM
TGI (UACC-257 melanoma): > 100 µM
TGI (MALME-3M melanoma): > 100 µM
TGI (EKVX NSCLC): > 100 µM
TGI (U251 CNS): > 100 µM
TGI (SK-MEL-5 melanoma): > 100 µM
TGI (HL-60(TB) leukemia): > 100 µM
TGI (UACC-62 melanoma): > 100 µM

CCOC(=O)C1(C(=O)OCC)C[C@H]2CON=C2[C@@H]1c1ccc(C(F)(F)F)cc1
TGI (CAKI-1 renal): > 100 µM
TGI (UACC-257 melanoma): > 100 µM
TGI (MALME-3M melanoma): > 100 µM
TGI (EKVX NSCLC): 96.6 µM
TGI (SF-268 CNS): > 100 µM
TGI (U251 CNS): > 100 µM
TGI (SK-MEL-5 melanoma): > 100 µM
TGI (HL-60(TB) leukemia): > 100 µM
TGI (UACC-62 melanoma): > 100 µM

COc1ccc2cc(C(=O)NCCc3ccccc3)ccc2c1OC
TGI (CAKI-1 renal): > 100 µM
TGI (UACC-257 melanoma): > 100 µM
TGI (MALME-3M melanoma): > 100 µM
TGI (EKVX NSCLC): > 100 µM
TGI (SF-268 CNS): > 100 µM
TGI (U251 CNS): > 100 µM
TGI (SK-MEL-5 melanoma): > 100 µM
TGI (UACC-62 melanoma): > 100 µM

Cc1cc(SCC(=O)c2ccc(Br)cc2)cc(C)[o+]1
TGI (CAKI-1 renal): > 100 µM
TGI (UACC-257 melanoma): 65.9 µM
TGI (MALME-3M melanoma): 97.9 µM
TGI (EKVX NSCLC): 39.9 µM
TGI (SF-268 CNS): > 100 µM
TGI (U251 CNS): 90 µM
TGI (SK-MEL-5 melanoma): 35.9 µM
TGI (HL-60(TB) leukemia): 33.8 µM
TGI (UACC-62 melanoma): > 100 µM

c1ccc(COc2nc3ccc(C45CC6CC(CC(C6)C4)C5)cc3[nH]2)cc1
TGI (CAKI-1 renal): > 100 µM
TGI (UACC-257 melanoma): > 26.4 µM
TGI (MALME-3M melanoma): 86.1 µM
TGI (EKVX NSCLC): > 100 µM
TGI (SF-268 CNS): > 100 µM
TGI (U251 CNS): > 78.5 µM
TGI (SK-MEL-5 melanoma): 14.6 µM
TGI (HL-60(TB) leukemia): 43.7 µM
TGI (UACC-62 melanoma): > 100 µM

COC(=O)c1nc2c(C)c(O)c(O)c([C@H](C)CCC=C(C)C)c2o1
TGI (CAKI-1 renal): 50.9 µM
TGI (UACC-257 melanoma): 78 µM
TGI (MALME-3M melanoma): > 100 µM
TGI (EKVX NSCLC): > 100 µM
TGI (SF-268 CNS): > 100 µM
TGI (U251 CNS): > 100 µM
TGI (SK-MEL-5 melanoma): 28.4 µM
TGI (HL-60(TB) leukemia): 45.6 µM

CCc1nnc2sc(-c3ccc(-c4ccc(Cl)cc4Cl)o3)nn12
TGI (CAKI-1 renal): > 100 µM
TGI (UACC-257 melanoma): > 100 µM
TGI (MALME-3M melanoma): > 100 µM
TGI (EKVX NSCLC): > 100 µM
TGI (SF-268 CNS): > 100 µM
TGI (U251 CNS): > 100 µM
TGI (SK-MEL-5 melanoma): > 100 µM
TGI (HL-60(TB) leukemia): > 100 µM

COc1ccc(N(C(=O)OC(C)(C)C)[C@@H]2C(C)=C[C@H]([S@@](=O)c3ccc(C)cc3)[C@@H]3C(=O)N(C)C(=O)[C@@H]32)cc1
TGI (CAKI-1 renal): 52.6 µM
TGI (UACC-257 melanoma): 43.8 µM
TGI (MALME-3M melanoma): 71.8 µM
TGI (EKVX NSCLC): 9.85 µM
TGI (SF-268 CNS): 33.9 µM
TGI (U251 CNS): 31.9 µM
TGI (SK-MEL-5 melanoma): 43.7 µM
TGI (HL-60(TB) leukemia): 47.5 µM
TGI (UACC-62 melanoma): 48.4 µM

CC(C)(C)[Si](C)(C)OCC1OC(n2ccc(=O)[nH]c2=O)C(O[Si](C)(C)C(C)(C)C)/C1=N/O (stereo not drawn)
TGI (CAKI-1 renal): 37.9 µM
TGI (UACC-257 melanoma): 16.7 µM
TGI (EKVX NSCLC): 16.1 µM
TGI (U251 CNS): 23.4 µM
TGI (SK-MEL-5 melanoma): 6.07 µM
TGI (UACC-62 melanoma): 24.8 µM

CC(C)(C)NCC(O)COc1cccc2[nH]c(C#N)cc12 (stereo not drawn)
TGI (CAKI-1 renal): > 100 µM
TGI (MALME-3M melanoma): > 100 µM
TGI (EKVX NSCLC): > 100 µM
TGI (SF-268 CNS): > 100 µM
TGI (U251 CNS): > 100 µM
TGI (SK-MEL-5 melanoma): > 100 µM
TGI (HL-60(TB) leukemia): > 100 µM
TGI (UACC-62 melanoma): > 100 µM

NC12c3c4cccc3Oc3cccc(c31)Oc1cccc(c12)O4
TGI (CAKI-1 renal): > 50 µM
TGI (UACC-257 melanoma): > 50 µM
TGI (EKVX NSCLC): > 50 µM
TGI (SF-268 CNS): > 50 µM
TGI (U251 CNS): > 50 µM
TGI (HL-60(TB) leukemia): > 50 µM
TGI (UACC-62 melanoma): > 50 µM

CC1(C)OC1CC/C(=C/CBr)CBr (stereo not drawn)
TGI (CAKI-1 renal): 32.3 µM
TGI (UACC-257 melanoma): 28.8 µM
TGI (MALME-3M melanoma): 36.9 µM
TGI (EKVX NSCLC): 33.3 µM
TGI (SF-268 CNS): 29 µM
TGI (U251 CNS): 29.3 µM
TGI (SK-MEL-5 melanoma): 27.5 µM
TGI (HL-60(TB) leukemia): 23.9 µM

NC(=O)c1cc2ccccc2c(N=Nc2ccccc2)c1O
TGI (CAKI-1 renal): 69.9 µM
TGI (UACC-257 melanoma): > 100 µM
TGI (MALME-3M melanoma): > 100 µM
TGI (EKVX NSCLC): > 100 µM
TGI (SF-268 CNS): > 100 µM
TGI (U251 CNS): 49.2 µM
TGI (SK-MEL-5 melanoma): > 100 µM
TGI (UACC-62 melanoma): > 100 µM

c1ccc(/C(=N/Nc2cnccn2)c2ncccn2)cc1
TGI (CAKI-1 renal): > 100 µM
TGI (UACC-257 melanoma): > 100 µM
TGI (EKVX NSCLC): > 100 µM
TGI (SF-268 CNS): > 100 µM
TGI (U251 CNS): > 100 µM
TGI (SK-MEL-5 melanoma): > 100 µM
TGI (UACC-62 melanoma): > 100 µM

Cc1ccc(S(=O)/C=C(\NC(=O)OCc2ccccc2)C(F)(F)F)cc1 (stereo not drawn)
TGI (CAKI-1 renal): > 100 µM
TGI (UACC-257 melanoma): > 100 µM
TGI (MALME-3M melanoma): > 100 µM
TGI (EKVX NSCLC): > 100 µM
TGI (U251 CNS): 55.2 µM
TGI (SK-MEL-5 melanoma): > 100 µM
TGI (HL-60(TB) leukemia): 42 µM
TGI (UACC-62 melanoma): > 100 µM

CC(C)(C)[C@@H]1NC(=O)CN1C(=O)OCc1ccccc1
TGI (UACC-257 melanoma): > 100 µM
TGI (MALME-3M melanoma): > 100 µM
TGI (EKVX NSCLC): > 100 µM
TGI (SF-268 CNS): > 100 µM
TGI (U251 CNS): > 100 µM
TGI (SK-MEL-5 melanoma): > 100 µM
TGI (HL-60(TB) leukemia): > 100 µM
TGI (UACC-62 melanoma): > 100 µM

CC1(C(O)c2ccccc2)CN(C(C)(C)C)C(=O)/C1=C\Sc1ccccc1 (stereo not drawn)
TGI (CAKI-1 renal): > 100 µM
TGI (UACC-257 melanoma): 95.2 µM
TGI (EKVX NSCLC): > 100 µM
TGI (SF-268 CNS): 43.5 µM
TGI (U251 CNS): > 100 µM
TGI (SK-MEL-5 melanoma): > 100 µM
TGI (HL-60(TB) leukemia): > 100 µM
TGI (UACC-62 melanoma): > 100 µM

O=c1[nH]c2ccc(CC(=S)N3CCN(c4ccccc4)CC3)cc2s1
TGI (CAKI-1 renal): > 100 µM
TGI (UACC-257 melanoma): > 100 µM
TGI (MALME-3M melanoma): 55.5 µM
TGI (EKVX NSCLC): > 100 µM
TGI (SF-268 CNS): > 100 µM
TGI (U251 CNS): 21.2 µM
TGI (HL-60(TB) leukemia): > 100 µM
TGI (UACC-62 melanoma): > 100 µM

N=C(/C=C/c1ccc(-c2cn3cc(/C=C/C(=N)N4CCOCC4)ccc3n2)cc1)N1CCOCC1
TGI (CAKI-1 renal): > 100 µM
TGI (UACC-257 melanoma): > 100 µM
TGI (MALME-3M melanoma): > 100 µM
TGI (EKVX NSCLC): > 100 µM
TGI (SF-268 CNS): > 100 µM
TGI (U251 CNS): > 100 µM
TGI (SK-MEL-5 melanoma): > 100 µM
TGI (UACC-62 melanoma): > 100 µM

CC(=O)O[C@H]1C(=O)[C@]2(C)[C@@H](OC(=O)OCC(O)CO)C[C@H]3OC[C@@]3(OC(C)=O)[C@H]2[C@H](OC(=O)c2ccccc2)[C@]2(O)C[C@H](OC(=O)[C@H](O)[C@@H](NC(=O)c3ccccc3)c3ccccc3)C(C)=C1C2(C)C (stereo partly drawn)
TGI (CAKI-1 renal): > 68.8 µM
TGI (UACC-257 melanoma): 22.2 µM
TGI (EKVX NSCLC): > 100 µM
TGI (SF-268 CNS): > 67.8 µM
TGI (U251 CNS): 15.6 µM
TGI (SK-MEL-5 melanoma): 19.6 µM
TGI (UACC-62 melanoma): 21.2 µM
